Results reported in US20250152516A1, “COMPRESSIBLE SODIUM CAPRATE FORMULATIONS” (AstraZeneca AB, priority 2022, published 2025).
“Also recorded” adds a separate entry of the source. l = locked nucleic acid (LNA); [5mC] = 5-methylcytosine; d = 2'-deoxy (DNA)

Tests used:
Format in all cases: physicochemical
[1] = Compaction properties (tabletability, tablet tensile strength, compaction simulator) of sodium caprate forms; conditions: tablets of each form; particle sizes about 37-53, 150-300, 600-710 μm; FIGS. 5A-5C
Method: The tabletability of different particle sizes and forms of sodium caprate was obtained by measuring the tensile strength of tablets compressed using a compaction simulator. FIGS. 5A-5C show the results of tabletability with laboratory-scale amounts of sodium caprate with particle sizes of about 37 to 53 μm, of about 150 to 300 μm, and of about 600 to 710 μm, respectively.
Tablets were produced with each of the sodium caprate forms, and compaction properties were assessed.

[2] = Dissolution profile of tablets comprising Form A sodium caprate and a macromolecule; conditions: Example 12 Formulation 1 tablets; pH 6.8 phosphate buffer at 37° C.; FIGS. 20A-20B
Text: The dissolution profiles of tablets comprising Form A sodium caprate and an ASO, prepared according to Example 12, Formulation 1, are illustrated in FIG. 20A. […] (mimicking the small intestinal condition). This allows for maximum absorption enhancement. The dissolution profile of tablets comprising Form A sodium caprate and the MEDI7219 Peptide is illustrated in FIG. 20B. […] (mimicking the small intestinal condition).

[3] = Compaction properties (tabletability, tablet tensile strength, compaction simulator) of sodium caprate forms; conditions: tablets of each form; high pressure = above approximately 50 MPa
[4] = Karl Fischer titration, water content of sodium caprate forms; conditions: forms prepared as in Example 1
Method: In some embodiments, the water content of sodium caprate is determined by Karl Fischer titration. Karl Fischer titration uses coulometric or volumetric titration to determine trace amounts of water in a sample. Methods of performing Karl Fischer titration are known to the skilled artisan. In some embodiments, Form A or Form B sodium caprate has a lower water content compared with Form C or Form D water content. In some embodiments, the sodium caprate is Form A sodium caprate characterized by a water content by Karl Fischer titration below 2%, below 1.9%, below 1.8%, below 1.7%, below 1.6%, below 1.5%, or below 1.4%. In some embodiments, Form A sodium caprate has a water content of about 0.4% to about 1.7%. Form B sodium caprate has a water content ≤1%. Form C sodium caprate has a water content of about 2% to about 3%, and Form D sodium caprate has a water content of about 2.5% to about 4%. In some embodiments, the sodium caprate used for making the oral tablet has a water content of less than about 2% as measured by Karl Fischer titration. In some embodiments, the sodium caprate has a water content of less than about 1.5%. In some embodiments, the sodium caprate has a water content of about 1%, about 1.1%, about 1.2%, about 1.3%, about 1.4%, about 1.5%, about 1.6%, about 1.7%, about 1.8%, about 1.9%, or about 2.0%. […]

| Molecule | compaction properties / tabletability [1] | release (dissolution) from tablets [2] | sticking tendency during tableting [3] | Amount of Water (%) [4] |
| --- | --- | --- | --- | --- |
| CCCCCCCCCC(=O)[O-].[Na+] [Form A, sodium caprate] | best compaction properties | rapid and concomitant release | no observable sticking at high pressure |  |
| CCCCCCCCCC(=O)[O-].[Na+] [Form B, sodium caprate] | poor tabletability |  | high sticking tendency |  |
| CCCCCCCCCC(=O)[O-].[Na+] [Form C, sodium caprate] | poor tabletability; also recorded: worst tabletability |  | high sticking tendency | 2-3% |
| CCCCCCCCCC(=O)[O-].[Na+] [Form D, sodium caprate] | poor tabletability; also recorded: worst tabletability |  | high sticking tendency |  |
| GM5CAttctaatagcAGM5C (antisense GCATTCTAATAGCAGC; sugars from the 5' end l3 d10 l3, [5mC] at 2, 16, backbone not given here) [MALAT1, antisense oligonucleotide targeting MALAT1, with LNA nucleosides and 5-methylcytidine, reference compound] |  | rapid and concomitant release |  |  |
